Laboratory results from US9676754B2, “Triazolone compounds and uses thereof” (Inception 2, Inc., priority 2012, dated 2017).
pIC50: −log10 of the molar value. Read-outs that look alike come from different tables or passages of the source.

Assays:
Human PPARα = molecular target: T1, Human PPARα (Homo sapiens, UniProt Q07869); experiment: Human PPARα Reporter Assay (luciferase); type: cell-based
T1 construct: host or cells: proprietary non-human mammalian cells
T1 sequence (Q07869 1-468): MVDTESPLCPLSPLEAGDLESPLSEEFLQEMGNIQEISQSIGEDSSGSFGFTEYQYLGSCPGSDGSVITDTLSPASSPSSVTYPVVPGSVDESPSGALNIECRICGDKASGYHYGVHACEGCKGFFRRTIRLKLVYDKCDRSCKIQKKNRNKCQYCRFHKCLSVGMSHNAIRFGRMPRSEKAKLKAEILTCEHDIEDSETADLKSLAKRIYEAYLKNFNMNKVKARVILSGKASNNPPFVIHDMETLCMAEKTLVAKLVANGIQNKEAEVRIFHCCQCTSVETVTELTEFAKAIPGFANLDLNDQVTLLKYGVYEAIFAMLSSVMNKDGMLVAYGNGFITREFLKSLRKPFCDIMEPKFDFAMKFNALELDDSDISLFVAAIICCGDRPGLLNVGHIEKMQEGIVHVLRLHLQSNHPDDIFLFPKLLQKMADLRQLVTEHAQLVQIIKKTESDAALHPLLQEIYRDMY
Method: Human PPARα Reporter Assay
The screening of test compounds for agonist or antagonist activities against human PPARα receptors was performed using a commercial kit, Human PPARα Reporter Assay System (Indigo Biosciences, Cat. #IB00111).
This nuclear receptor assay system utilizes proprietary non-human mammalian cells engineered to provide constitutive, high-level expression of Human PPARα. Because these cells incorporate a PPARα-responsive luciferase reporter gene, quantifying expressed luciferase activity provides a sensitive surrogate measure of PPARα activity in the treated cells. The primary application of this reporter assay system is in the screening of test samples to quantify any functional activity, either agonist or antagonist, that they may exert against human PPARα. […] Briefly, the reporter cells are dispensed into wells of the assay plate and then immediately dosed with test compounds. Following an overnight incubation, the treatment media are discarded and Luciferase Detection Reagent (LDR) is added. The intensity of light emission from the ensuing luciferase reaction provides a sensitive measure that is directly proportional to the relative level of PPARα activation in the reporter cells.

PPAR gamma = molecular target: T2, PPAR gamma (Homo sapiens, UniProt P37231); experiment: Target selectivity counterscreen, PPAR γ reporter assay; type: cell-based; conditions: receptor agonist at ~EC80
T2 construct: host or cells: engineered reporter cells of the kit (analogous to the human PPARα kit)
T2 sequence (P37231 1-505): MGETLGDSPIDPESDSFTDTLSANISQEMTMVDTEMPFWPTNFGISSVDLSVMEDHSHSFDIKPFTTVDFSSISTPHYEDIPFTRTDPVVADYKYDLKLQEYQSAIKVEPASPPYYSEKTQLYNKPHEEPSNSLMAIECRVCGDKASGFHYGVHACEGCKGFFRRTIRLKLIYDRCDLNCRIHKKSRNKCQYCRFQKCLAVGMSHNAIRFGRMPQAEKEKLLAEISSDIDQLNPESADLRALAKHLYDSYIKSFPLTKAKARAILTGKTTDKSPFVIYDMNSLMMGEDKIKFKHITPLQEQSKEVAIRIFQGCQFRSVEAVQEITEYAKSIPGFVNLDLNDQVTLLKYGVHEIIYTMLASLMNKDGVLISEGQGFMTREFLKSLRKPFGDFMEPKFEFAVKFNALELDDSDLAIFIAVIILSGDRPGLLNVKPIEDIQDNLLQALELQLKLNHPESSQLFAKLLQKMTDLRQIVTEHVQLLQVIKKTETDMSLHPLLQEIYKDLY
Method: Target Selectivity Assays
To determine species selectivity, a Mouse PPARα Reporter Assay System was used (Indigo Biosciences, Cat. #M00111). Activity of test compounds to antagonize or agonize other isoforms of human PPAR, for example β/δ and γ, were assessed using the corresponding kits from Indigo Biosciences (Cat. #IB00121 and #IB00101, respectively). In addition to PPAR activity, compounds were also screened for activity against other nuclear hormone receptors including Estrogen Receptor β, Glucocorticoid Receptor and Thyroid Receptor β using commercially available kits (Indigo Biosciences, Cat. #IB00411, IB00201 and IB01101, respectively). Each assay system from Indigo Biosciences uses technology analogous to the human PPARα kit, with the variance being that the cells used for each assay were engineered to over-express the receptor of interest. In addition, the appropriate receptor agonist (included with each kit) was used at ˜EC80 for assays in which antagonist potency was being assessed.

pIC50 (Human PPARα; antagonist activity, luciferase reporter cells, overnight incubation, read-out: Human PPARα Reporter Assay-Luciferase IC50): 7.24 | pIC50 (Human PPARα; counterscreen assay results table, read-out: PPAR alpha IC50): 7.24 | pIC50 (PPAR gamma): 4.40
Compound: CCOc1ccc(-c2cccc(CCCc3nn(Cc4ccc(C(C)(C)C)cc4)c(=O)n3CC)c2)cc1CC(=O)O [Example 6, 2-(3′-(3-(1-(4-(tert-Butyl)benzyl)-4-ethyl-5-oxo-4,5-dihydro-1H-1,2,4-triazol-3-yl)propyl)-4-ethoxy-[1,1′-biphenyl]-3-yl)acetic acid]
